Assay results: ChEMBL document CHEMBL4725259 (Bioorg Med Chem, 2020)
pIC50: −log10 of the molar value. The source made the active and inactive calls. No cut-off for these calls is given here.

Assays:
Assay type in all cases: cell-based
[1] = biological target: T1, CX3C chemokine receptor 1 (Homo sapiens) (UniProt P49238); experiment: Antagonist activity at human CX3CR1 expressed in CHO-K1 cells at 20 uM by PathHunter beta-arrestin assay relative to control; conditions: filed as antagonist
T1 sequence (whole entry): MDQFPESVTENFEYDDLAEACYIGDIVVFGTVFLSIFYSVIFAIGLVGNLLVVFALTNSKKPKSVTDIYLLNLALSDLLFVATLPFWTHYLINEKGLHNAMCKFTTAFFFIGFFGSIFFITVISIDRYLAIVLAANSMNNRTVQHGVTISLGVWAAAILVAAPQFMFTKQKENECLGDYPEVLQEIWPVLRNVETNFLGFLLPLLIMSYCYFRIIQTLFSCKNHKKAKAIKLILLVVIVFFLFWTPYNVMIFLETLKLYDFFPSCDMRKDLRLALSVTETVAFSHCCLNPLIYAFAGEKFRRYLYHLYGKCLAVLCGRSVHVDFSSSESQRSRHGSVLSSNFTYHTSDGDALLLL

[2] = biological target: T2, Oxytocin receptor (Homo sapiens) (UniProt P30559); experiment: Antagonist activity at human OXTR expressed in CHO-K1 cells at 20 uM by PathHunter beta-arrestin assay relative to control; conditions: filed as antagonist
T2 sequence (whole entry): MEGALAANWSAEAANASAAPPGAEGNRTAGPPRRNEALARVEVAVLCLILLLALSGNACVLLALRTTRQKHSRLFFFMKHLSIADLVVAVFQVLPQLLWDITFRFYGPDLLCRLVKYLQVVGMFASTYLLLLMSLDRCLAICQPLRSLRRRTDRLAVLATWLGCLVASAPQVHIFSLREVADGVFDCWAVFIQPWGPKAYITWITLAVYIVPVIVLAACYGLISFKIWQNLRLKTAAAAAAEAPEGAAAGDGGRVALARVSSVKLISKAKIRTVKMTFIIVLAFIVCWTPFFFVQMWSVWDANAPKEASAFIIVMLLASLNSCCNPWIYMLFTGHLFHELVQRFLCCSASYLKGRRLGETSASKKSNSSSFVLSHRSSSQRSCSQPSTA

[3] = biological target: T3, Prolactin-releasing peptide receptor (Homo sapiens) (UniProt P49683); experiment: Antagonist activity at human PRLHR expressed in CHO-K1 cells at 20 uM by PathHunter beta-arrestin assay relative to control; conditions: filed as antagonist
T3 sequence (whole entry): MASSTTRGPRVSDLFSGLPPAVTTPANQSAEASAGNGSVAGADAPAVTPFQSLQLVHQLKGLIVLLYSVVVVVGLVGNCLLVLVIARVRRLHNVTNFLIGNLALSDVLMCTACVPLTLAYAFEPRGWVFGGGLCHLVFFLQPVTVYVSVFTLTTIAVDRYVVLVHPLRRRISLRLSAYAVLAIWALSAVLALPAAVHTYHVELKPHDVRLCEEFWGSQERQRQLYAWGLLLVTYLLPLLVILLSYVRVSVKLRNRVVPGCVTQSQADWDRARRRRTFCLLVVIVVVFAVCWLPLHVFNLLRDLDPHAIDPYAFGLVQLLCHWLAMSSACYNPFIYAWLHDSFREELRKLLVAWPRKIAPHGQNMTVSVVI

Oxytocin receptor = biological target: T4, Oxytocin receptor (Homo sapiens, UniProt P30559); experiment: Antagonist activity at human OXTR expressed in CHO-K1 cells by PathHunter beta-arrestin assay
T4 sequence (P30559 whole entry): T2 sequence (whole entry)

[4] = biological target: T1, CX3C chemokine receptor 1 (Homo sapiens); experiment: Agonist activity at human CX3CR1 expressed in CHO-K1 cells at 20 uM by PathHunter beta-arrestin assay relative to control
[5] = biological target: C-X-C chemokine receptor type 4 (Homo sapiens, UniProt P61073); experiment: Agonist activity at human CXCR4 expressed in mouse C2C12 cells at 20 uM by PathHunter beta-arrestin assay relative to control
C-X-C chemokine receptor type 4, sequence (P61073 whole entry): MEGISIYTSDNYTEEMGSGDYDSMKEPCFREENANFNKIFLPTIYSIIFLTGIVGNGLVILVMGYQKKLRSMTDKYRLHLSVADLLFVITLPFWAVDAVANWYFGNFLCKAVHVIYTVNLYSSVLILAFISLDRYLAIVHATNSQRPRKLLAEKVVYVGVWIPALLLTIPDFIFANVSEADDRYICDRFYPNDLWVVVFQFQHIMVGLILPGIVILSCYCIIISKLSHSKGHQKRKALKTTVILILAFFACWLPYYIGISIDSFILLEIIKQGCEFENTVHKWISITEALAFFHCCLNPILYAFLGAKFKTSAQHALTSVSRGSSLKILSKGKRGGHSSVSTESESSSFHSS

[6] = biological target: T5, Follicle-stimulating hormone receptor (Homo sapiens) (UniProt P23945); experiment: Agonist activity at human FSHR expressed in CHO-K1 cells at 20 uM by PathHunter beta-arrestin assay relative to control
T5 sequence (whole entry): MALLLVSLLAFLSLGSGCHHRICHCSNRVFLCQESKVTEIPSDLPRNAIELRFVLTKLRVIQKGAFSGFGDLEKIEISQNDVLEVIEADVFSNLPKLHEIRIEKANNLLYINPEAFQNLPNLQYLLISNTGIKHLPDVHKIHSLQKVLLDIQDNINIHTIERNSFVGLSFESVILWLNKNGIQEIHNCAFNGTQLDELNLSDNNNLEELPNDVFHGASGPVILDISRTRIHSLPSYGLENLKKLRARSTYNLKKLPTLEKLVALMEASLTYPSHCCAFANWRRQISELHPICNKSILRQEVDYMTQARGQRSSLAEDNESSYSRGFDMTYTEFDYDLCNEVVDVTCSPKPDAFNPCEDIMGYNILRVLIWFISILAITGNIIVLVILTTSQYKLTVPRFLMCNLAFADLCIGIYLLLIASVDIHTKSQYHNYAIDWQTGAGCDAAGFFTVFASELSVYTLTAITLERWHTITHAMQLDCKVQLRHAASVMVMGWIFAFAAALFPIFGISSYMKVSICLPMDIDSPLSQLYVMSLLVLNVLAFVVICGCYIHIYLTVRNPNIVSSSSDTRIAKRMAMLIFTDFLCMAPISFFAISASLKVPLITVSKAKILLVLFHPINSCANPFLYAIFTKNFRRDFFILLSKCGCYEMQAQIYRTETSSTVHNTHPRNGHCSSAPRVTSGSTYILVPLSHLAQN

[7] = biological target: T6, 5-hydroxytryptamine receptor 2C (Homo sapiens, UniProt P28335); experiment: Antagonist activity at HTR2C in human U2OS cells by PathHunter beta-arrestin assay
T6 sequence (P28335 whole entry): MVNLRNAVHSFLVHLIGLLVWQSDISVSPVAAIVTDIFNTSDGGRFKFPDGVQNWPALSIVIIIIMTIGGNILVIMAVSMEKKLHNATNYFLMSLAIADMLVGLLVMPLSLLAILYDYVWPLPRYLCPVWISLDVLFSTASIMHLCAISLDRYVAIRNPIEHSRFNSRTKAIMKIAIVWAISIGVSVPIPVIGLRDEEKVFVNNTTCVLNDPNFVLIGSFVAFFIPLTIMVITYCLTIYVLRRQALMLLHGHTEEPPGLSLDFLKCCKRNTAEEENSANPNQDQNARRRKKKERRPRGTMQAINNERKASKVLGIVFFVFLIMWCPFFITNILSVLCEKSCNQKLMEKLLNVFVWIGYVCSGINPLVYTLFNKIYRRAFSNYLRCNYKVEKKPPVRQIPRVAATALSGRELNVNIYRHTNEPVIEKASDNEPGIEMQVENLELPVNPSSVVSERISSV

SMILES	inhibition [1]	inhibition [2]	inhibition [3]	pIC50 (Oxytocin receptor)	Activity [4]	Activity [5]	Activity [6]	pIC50 [7]
COC(=O)[C@@H]1[C@H]2C[C@@H]3N(CC[C@@]34C(=O)N(Cc3cccc(OC)c3)c3ccccc34)C[C@@H]2CC[C@@H]1OCc1cccc(OC)c1	72%	97%	63%	5.94	inactive	inactive	inactive	–
COC(=O)[C@@H]1[C@H]2C[C@@H](c3[nH]c4ccccc4c3CCn3cc(-c4cccc(Cl)c4)nn3)N(C#N)C[C@@H]2CC[C@@H]1O	92%	9%	19%	–	inactive	inactive	inactive	6.74
